{"source": "PubChem BioAssay AID270", "about": "(DTP/NCI, 2004)", "test_system": "BDF1 mice, s.c. Lewis lung carcinoma, T/C %", "test": "NCI In Vivo Anticancer Drug Screen. Data for tumor model Lewis Lung Carcinoma (subcutaneous) in B6D2F1 (BDF1) mice", "in_short": "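Transplanted tumors grown in mice; compound vs vehicle dosing; endpoint survival or tumor size; ratio T/C.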", "note": "“And” between values parts separate entries of the source, which are not always exact repeats. Identical values can stand only once. Results filed as inconclusive are left out."}
{"molecule": "Fc1ccc(NC(=S)Nc2cc(Cl)cc(Cl)c2)cc1", "values": [{"measurement": "T/C", "setting": "endpoint: mean tumor weight, dose: 7.5 mg/kg/injection, schedule: Q01DX011 (ip), vehicle: carboxymethylcellulose (CMC), higher = larger tumour", "result": "60 % of control"}]}
{"molecule": "CS(=O)(=O)OCC(O)C(O)COS(C)(=O)=O", "note": "(stereo not given)", "values": [{"measurement": "T/C", "setting": "endpoint: mean tumor weight, dose: 125.0 mg/kg/injection, schedule: Q01DX011 (ip), vehicle: saline, higher = larger tumour", "result": "87 % of control"}, {"measurement": "T/C", "setting": "endpoint: mean tumor weight, dose: 250.0 mg/kg/injection, schedule: Q01DX011 (ip), vehicle: saline, higher = larger tumour", "result": "77 % of control"}, {"measurement": "T/C", "setting": "endpoint: mean tumor weight, dose: 500.0 mg/kg/injection, schedule: Q01DX011 (ip), vehicle: other, higher = larger tumour", "result": "75 % of control"}, {"measurement": "T/C", "setting": "endpoint: mean tumor weight, dose: 500.0 mg/kg/injection, schedule: Q01DX011 (ip), vehicle: saline, higher = larger tumour", "result": "59 % of control"}, {"measurement": "T/C", "setting": "endpoint: mean tumor weight, dose: 750.0 mg/kg/injection, schedule: Q01DX011 (ip), vehicle: other, higher = larger tumour", "result": "93 % of control"}, {"measurement": "T/C", "setting": "endpoint: mean tumor weight, dose: 1000.0 mg/kg/injection, schedule: Q01DX011 (ip), vehicle: other, higher = larger tumour", "result": "55 % of control"}]}
{"molecule": "O=c1cnn(C2OC(CO)C(O)C2O)c(=O)[nH]1", "note": "(stereo not given)", "values": [{"measurement": "T/C", "setting": "endpoint: median survival time, dose: 150.0 mg/kg/injection, schedule: Q01DX009 (ip), vehicle: Klucel (hydroxypropylcellulose) (HPC), higher = longer survival", "result": "150 % of control"}, {"measurement": "T/C", "setting": "endpoint: median survival time, dose: 600.0 mg/kg/injection, schedule: Q01DX009 (ip), vehicle: Klucel (hydroxypropylcellulose) (HPC), higher = longer survival", "result": "157 % of control"}]}
{"molecule": "CCOC(=O)C1C(=O)C(CN(CCCl)CCCl)C(=O)C(C(=O)OCC)C1c1ccc(O)cc1", "note": "(stereo not given)", "values": [{"measurement": "T/C", "setting": "endpoint: median survival time, dose: 3.12 mg/kg/injection, schedule: Q01DX009 (ip), vehicle: Klucel (hydroxypropylcellulose) (HPC), higher = longer survival", "result": "94 % of control"}, {"measurement": "T/C", "setting": "endpoint: median survival time, dose: 6.25 mg/kg/injection, schedule: Q01DX009 (ip), vehicle: Klucel (hydroxypropylcellulose) (HPC), higher = longer survival", "result": "98 % of control"}, {"measurement": "T/C", "setting": "endpoint: median survival time, dose: 12.5 mg/kg/injection, schedule: Q01DX009 (ip), vehicle: Klucel (hydroxypropylcellulose) (HPC), higher = longer survival", "result": "100 % of control"}, {"measurement": "T/C", "setting": "endpoint: median survival time, dose: 25.0 mg/kg/injection, schedule: Q01DX009 (ip), vehicle: Klucel (hydroxypropylcellulose) (HPC), higher = longer survival", "result": "94 % of control"}]}
{"molecule": "CCc1ccccc1N1CCN(C(=O)c2cc(OC)c(OC)c(OC)c2)CC1", "values": [{"measurement": "T/C", "setting": "endpoint: mean tumor weight, dose: 25.0 mg/kg/injection, schedule: Q01DX011 (ip), vehicle: carboxymethylcellulose (CMC), higher = larger tumour", "result": "46 % of control and 48 % of control"}]}
{"molecule": "[Cl][Hg][c]1ccc2ccccc2c1", "values": [{"measurement": "T/C", "setting": "endpoint: median survival time, dose: 3.0 mg/kg/injection, schedule: Q01DX009 (ip), vehicle: gum acacia, higher = longer survival", "result": "89 % of control"}, {"measurement": "T/C", "setting": "endpoint: median survival time, dose: 6.0 mg/kg/injection, schedule: Q01DX009 (ip), vehicle: gum acacia, higher = longer survival", "result": "108 % of control"}]}
{"molecule": "O=CNCCO", "values": [{"measurement": "T/C", "setting": "endpoint: mean tumor weight, dose: 133.0 mg/kg/injection, schedule: Q01DX011 (ip), vehicle: saline, higher = larger tumour", "result": "69 % of control"}, {"measurement": "T/C", "setting": "endpoint: mean tumor weight, dose: 200.0 mg/kg/injection, schedule: Q01DX011 (ip), vehicle: saline, higher = larger tumour", "result": "79 % of control"}, {"measurement": "T/C", "setting": "endpoint: mean tumor weight, dose: 300.0 mg/kg/injection, schedule: Q01DX011 (ip), vehicle: saline, higher = larger tumour", "result": "48 % of control"}, {"measurement": "T/C", "setting": "endpoint: mean tumor weight, dose: 450.0 mg/kg/injection, schedule: Q01DX011 (ip), vehicle: saline, higher = larger tumour", "result": "54 % of control"}, {"measurement": "T/C", "setting": "endpoint: mean tumor weight, dose: 750.0 mg/kg/injection, schedule: Q01DX011 (ip), vehicle: saline, higher = larger tumour", "result": "81 % of control"}]}
{"molecule": "CN(C)c1nc(N(C)C)nc(N(C)C)n1", "values": [{"measurement": "T/C", "setting": "endpoint: median survival time, dose: 6.25 mg/kg/injection, schedule: Q08HX024 (ip), vehicle: Klucel (hydroxypropylcellulose) (HPC), higher = longer survival", "result": "106 % of control"}, {"measurement": "T/C", "setting": "endpoint: median survival time, dose: 12.5 mg/kg/injection, schedule: Q01DX009 (ip), vehicle: saline with Tween-80, higher = longer survival", "result": "93 % of control and 102 % of control"}, {"measurement": "T/C", "setting": "endpoint: median survival time, dose: 25.0 mg/kg/injection, schedule: Q01DX009 (ip), vehicle: saline with Tween-80, higher = longer survival", "result": "97 % of control and 102 % of control"}, {"measurement": "T/C", "setting": "endpoint: median survival time, dose: 25.0 mg/kg/injection, schedule: Q08HX024 (ip), vehicle: Klucel (hydroxypropylcellulose) (HPC), higher = longer survival", "result": "112 % of control"}, {"measurement": "T/C", "setting": "endpoint: median survival time, dose: 50.0 mg/kg/injection, schedule: Q01DX009 (ip), vehicle: saline with Tween-80, higher = longer survival", "result": "103 % of control and 110 % of control"}, {"measurement": "T/C", "setting": "endpoint: median survival time, dose: 100.0 mg/kg/injection, schedule: Q01DX009 (ip), vehicle: saline with Tween-80, higher = longer survival", "result": "102 % of control"}]}
{"molecule": "O=C(O)c1ccc(-c2ccccc2)cc1", "values": [{"measurement": "T/C", "setting": "endpoint: mean tumor weight, dose: 60.0 mg/kg/injection, schedule: Q01DX011 (ip), vehicle: carboxymethylcellulose (CMC), higher = larger tumour", "result": "61 % of control"}, {"measurement": "T/C", "setting": "endpoint: mean tumor weight, dose: 90.0 mg/kg/injection, schedule: Q01DX011 (ip), vehicle: carboxymethylcellulose (CMC), higher = larger tumour", "result": "80 % of control"}, {"measurement": "T/C", "setting": "endpoint: mean tumor weight, dose: 135.0 mg/kg/injection, schedule: Q01DX011 (ip), vehicle: carboxymethylcellulose (CMC), higher = larger tumour", "result": "65 % of control"}, {"measurement": "T/C", "setting": "endpoint: mean tumor weight, dose: 200.0 mg/kg/injection, schedule: Q01DX011 (ip), vehicle: carboxymethylcellulose (CMC), higher = larger tumour", "result": "33 % of control and 42 % of control"}]}
{"molecule": "CCOC(=O)NC", "values": [{"measurement": "T/C", "setting": "endpoint: mean tumor weight, dose: 177.0 mg/kg/injection, schedule: Q01DX011 (ip), vehicle: saline, higher = larger tumour", "result": "87 % of control"}, {"measurement": "T/C", "setting": "endpoint: mean tumor weight, dose: 266.0 mg/kg/injection, schedule: Q01DX011 (ip), vehicle: saline, higher = larger tumour", "result": "83 % of control"}, {"measurement": "T/C", "setting": "endpoint: mean tumor weight, dose: 400.0 mg/kg/injection, schedule: Q01DX011 (ip), vehicle: saline, higher = larger tumour", "result": "62 % of control"}, {"measurement": "T/C", "setting": "endpoint: mean tumor weight, dose: 600.0 mg/kg/injection, schedule: Q01DX011 (ip), vehicle: saline, higher = larger tumour", "result": "44 % of control"}]}
